Experimental data from article PMC4360375 (Journal of Medicinal Chemistry, 2015).

Experiments:
[1] = parameters: method as in PMID 10903390; details: cited from earlier work
rGAT1 = molecular target: T1, rGAT1 (Rattus norvegicus, UniProt P23978); assay: [3H]-GABA uptake inhibition assay in HEK293 cells stably expressing rGAT1; assay type: cell-based; details: for remaining activity at 100 µM: HEK293, 100 μM of the respective compound; for remaining activity at 100 µM / % uptake (remaining uptake of [3H]-GABA): n = 3, relative to saline; for effect on [3H]-GABA uptake, in words: 100 μM compound; for % uptake (remaining uptake of [3H]-GABA): 100 μM of the respective compound
T1 construct: Y prefix of 'YrGAT-1' (own knowledge: yellow fluorescent protein, YFP, fused to rGAT1 in this group's constructs); expressed in transfected cells; host or cells: HEK293

[2] = test system: other neurotransmitter reuptake systems (dopamine, serotonin, choline, aspartate); parameters: method as in PMID 3509068; details: cited from earlier work

O=C(O)C1CCCNC1 (centres unmarked) [compound 2, nipecotic acid]
blood-brain barrier penetration [1]: unable to penetrate the blood–brain barrier

O=C(O)C1=CCCNC1 [compound 3, guvacine]
blood-brain barrier penetration [1]: unable to penetrate the blood–brain barrier

Cc1cc(S(=O)(=O)N2CCN(CCC(=O)O)CC2)ccc1Br [compound 22]
remaining activity at 100 µM (rGAT1): 104%

NC(CSCc1cccc2ccccc12)C(=O)O (centres unmarked) [compound 23]
remaining activity at 100 µM (rGAT1): 108%

CCC(CC)OC1C=C(C(=O)O)CC(N)C1NC(C)=O (centres unmarked) [compound 24]
remaining activity at 100 µM (rGAT1): 105%

bepotastine [compound 25]
effect on [3H]-GABA uptake, in words (rGAT1): inactive
effect on [3H]-GABA uptake, in words (rGAT1; listed as bepotastine): essentially inactive
% uptake (remaining uptake of [3H]-GABA) (rGAT1): 103.8%

liothyronine [27a]
activity on other neurotransmitter reuptake systems [2]: without major activity

ramipril [compound 26]
effect on [3H]-GABA uptake, in words (rGAT1): inactive
% uptake (remaining uptake of [3H]-GABA) (rGAT1): 107.7%
